Target: T1, human farnesoid X receptor (Homo sapiens, UniProt Q96RI1)
T1 construct: CMX-farnesoid X receptor (full length human farnesoid X receptor); expressed in transfected cells; host or cells: CV-1 African Green Monkey Kidney cells
T1 sequence (Q96RI1 1-472 isoform Q96RI1-2): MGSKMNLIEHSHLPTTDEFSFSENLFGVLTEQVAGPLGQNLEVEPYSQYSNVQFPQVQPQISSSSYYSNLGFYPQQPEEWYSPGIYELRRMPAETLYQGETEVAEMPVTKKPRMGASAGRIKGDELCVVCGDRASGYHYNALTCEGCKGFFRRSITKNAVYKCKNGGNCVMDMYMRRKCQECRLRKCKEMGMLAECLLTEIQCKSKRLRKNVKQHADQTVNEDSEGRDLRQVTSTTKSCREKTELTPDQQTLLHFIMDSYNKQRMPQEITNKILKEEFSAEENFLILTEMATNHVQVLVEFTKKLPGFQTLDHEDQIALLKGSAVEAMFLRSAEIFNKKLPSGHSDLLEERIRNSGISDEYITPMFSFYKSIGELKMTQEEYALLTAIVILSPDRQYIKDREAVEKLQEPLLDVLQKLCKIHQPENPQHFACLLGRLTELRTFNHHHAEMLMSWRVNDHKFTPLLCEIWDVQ
T1 sequence (P19793 1-462 partner): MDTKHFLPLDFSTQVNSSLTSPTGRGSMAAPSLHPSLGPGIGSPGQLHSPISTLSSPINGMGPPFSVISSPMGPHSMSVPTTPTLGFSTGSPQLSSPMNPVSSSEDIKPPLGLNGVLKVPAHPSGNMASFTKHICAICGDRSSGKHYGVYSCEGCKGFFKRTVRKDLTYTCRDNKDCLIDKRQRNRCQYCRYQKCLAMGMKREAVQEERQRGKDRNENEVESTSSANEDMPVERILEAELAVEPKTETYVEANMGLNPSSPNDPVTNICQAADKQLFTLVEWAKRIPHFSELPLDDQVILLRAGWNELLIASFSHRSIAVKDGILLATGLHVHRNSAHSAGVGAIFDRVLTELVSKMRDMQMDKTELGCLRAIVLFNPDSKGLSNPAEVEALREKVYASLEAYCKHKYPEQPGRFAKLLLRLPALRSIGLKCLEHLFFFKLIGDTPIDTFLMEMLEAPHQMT
Test: FXR in vitro assays (farnesoid X receptor/ECREx7 co-transfection assay, TR-FRET assay), Table I
Assay type: cell-based
Settings: for EC50: agonist activity, one or more of the in vitro assays, read-out: EC50; for Emax: read-out: % Efficacy
Method in brief: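 CV-1 monkey kidney cells transfected for an FXR/ECREx7 luciferase co-transfection reporter; luciferase read 18-20 h later in lysates. 8-point dose-response at ½-log spacing, 4 wells per point; EC50/IC50 from four-parameter Hill fit, averaged over at least 3 independent experiments.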

SMILES: CC(C)OC(=O)C1=CN(C(=O)c2cccc(C#N)c2)CC(C)(C)c2c1[nH]c1ccccc21 [Example 142, 1-methylethyl 3-[(3-cyanophenyl)carbonyl]-1,1-dimethyl-1,2,3,6-tetrahydroazepino[4,5-b]indole-5-carboxylate]
- EC50: 10 to 100 nM
- Emax: > 100%

SMILES: CC(C)OC(=O)C1=CN(C(=O)c2ccc(Cl)cc2Cl)CC(C)(C)c2c1[nH]c1ccccc21 [Example 143, 1-methylethyl 3-[(2,4-dichlorophenyl)carbonyl]-1,1-dimethyl-1,2,3,6-tetrahydroazepino[4,5-b]indole-5-carboxylate]
- EC50: 10 to 100 nM
- Emax: > 100%

SMILES: Cc1cc(C(=O)N2C=C(C(=O)OC(C)C)c3[nH]c4ccccc4c3C(C)(C)C2)ccc1F [Example 144, 1-methylethyl 3-[(4-fluoro-3-methylphenyl)carbonyl]-1,1-dimethyl-1,2,3,6-tetrahydroazepino[4,5-b]indole-5-carboxylate]
- EC50: 1 to 10 nM
- Emax: > 100%

SMILES: CC(C)OC(=O)C1=CN(C(=O)c2c(F)ccc(Cl)c2F)CC(C)(C)c2c1[nH]c1ccccc21 [Example 145, 1-methylethyl 3-[(3-chloro-2,6-difluorophenyl)carbonyl]-1,1-dimethyl-1,2,3,6-tetrahydroazepino[4,5-b]indole-5-carboxylate]
- EC50: 100 to 1000 nM
- Emax: > 100%

SMILES: CC(C)OC(=O)C1=CN(C(=O)c2ccc(F)c(Cl)c2)CC(C)(C)c2c1[nH]c1ccccc21 [Example 147, 1-methylethyl 3-[(3-chloro-4-fluorophenyl)carbonyl]-1,1-dimethyl-1,2,3,6-tetrahydroazepino[4,5-b]indole-5-carboxylate]
- EC50: 1 to 10 nM
- Emax: > 100%

SMILES: CC(C)OC(=O)C1=CN(C(=O)c2ccc(Cl)c(Cl)c2)CC(C)(C)c2c1[nH]c1ccccc21 [Example 148, 1-methylethyl 3-[(3,4-dichlorophenyl)carbonyl]-1,1-dimethyl-1,2,3,6-tetrahydroazepino[4,5-b]indole-5-carboxylate]
- EC50: 10 to 100 nM
- Emax: > 100%

SMILES: CC(C)OC(=O)C1=CN(C(=O)c2cc(F)c(Cl)cc2F)CC(C)(C)c2c1[nH]c1ccccc21 [Example 149, 1-methylethyl 3-[(4-chloro-2,5-difluorophenyl)carbonyl]-1,1-dimethyl-1,2,3,6-tetrahydroazepino[4,5- ]indole-5-carboxylate]
- EC50: 10 to 100 nM
- Emax: > 100%

SMILES: CC(C)OC(=O)C1=CN(C(=O)c2cccc(CN3CCN(S(C)(=O)=O)CC3)c2)CC(C)(C)c2c1[nH]c1ccccc21 [Example 151, 1-methylethyl 1,1-dimethyl-3-[(3-{[4-(methylsulfonyl)piperazin-1-yl]methyl}phenyl)carbonyl]-1,2,3,6-tetrahydroazepino[4,5-b]indole-5-carboxylate]
- EC50: 100 to 1000 nM
- Emax: > 100%

SMILES: CC(C)OC(=O)C1=CN(C(=O)c2cccc(CN3CCCCCC3)c2)CC(C)(C)c2c1[nH]c1ccccc21 [Example 152, 1-methylethyl 3-{[3-(azepan-1-ylmethyl)phenyl]carbonyl}-1,1-dimethyl-1,2,3,6-tetrahydroazepino[4,5-b]indole-5-carboxylate]
- EC50: 10 to 100 nM
- Emax: > 100%

SMILES: CC(C)OC(=O)C1=CN(C(=O)c2cccc(CN3CCCN(C)CC3)c2)CC(C)(C)c2c1[nH]c1ccccc21 [Example 153, 1-methylethyl 1,1-dimethyl-3-({3-[(4-methyl-1,4-diazepan-1-yl)methyl]phenyl}carbonyl)-1,2,3,6-tetrahydroazepino[4,5-b]indole-5-carboxylate]
- EC50: 1000 to 10000 nM
- Emax: > 100%

SMILES: CC(C)OC(=O)C1=CN(C(=O)c2ccc(F)c(Br)c2)CC(C)(C)c2c1[nH]c1ccccc21 [Example 154, 1-methylethyl 3-[(3-bromo-4-fluorophenyl)carbonyl]-1,1-dimethyl-1,2,3,6-tetrahydroazepino[4,5-b]indole-5-carboxylate]
- EC50: 10 to 100 nM
- Emax: > 100%

SMILES: CC(C)OC(=O)C1=CN(C(=O)c2cc(CN3CCOCC3)ccc2F)CC(C)(C)c2c1[nH]c1ccccc21 [Example 155, 1-methylethyl 3-{[2-fluoro-5-(morpholin-4-ylmethyl)phenyl]carbonyl}-1,1-dimethyl-1,2,3,6-tetrahydroazepino[4,5-b]indole-5-carboxylate]
- EC50: 100 to 1000 nM
- Emax: > 100%

SMILES: CC(C)OC(=O)C1=CN(C(=O)c2ccc3c(c2)nnn3C)CC(C)(C)c2c1[nH]c1ccccc21 [Example 157, 1-methylethyl 1,1-dimethyl-3-[(1-methyl-1H-1,2,3-benzotriazol-5-yl)carbonyl]-1,2,3,6-tetrahydroazepino[4,5-b]indole-5-carboxylate]
- EC50: 10 to 100 nM
- Emax: > 100%

SMILES: CC(C)OC(=O)C1=CN(C(=O)c2cccc(OCCN3CCOCC3)c2)CC(C)(C)c2c1[nH]c1ccccc21 [Example 160, 1-methylethyl 1,1-dimethyl-3-({3-[(2-morpholin-4-ylethyl)oxy]phenyl}carbonyl)-1,2,3,6-tetrahydroazepino[4,5-b]indole-5-carboxylate]
- Emax: > 100%

SMILES: CC1(C)CN(C(=O)c2ccc(F)c(F)c2)C=C(C(=O)NOCC(O)CO)c2[nH]c3ccccc3c21 (stereo not shown) [Example 161, 3-[(3,4-difluorophenyl)carbonyl]-N-[(2,3-dihydroxypropyl)oxy]-1,1-dimethyl-1,2,3,6-tetrahydroazepino[4,5-b]indole-5-carboxamide]
- EC50: > 10000 nM

SMILES: CC1(C)CN(C(=O)c2ccc(F)c(F)c2)C=C(C(=O)NCC(O)CO)c2[nH]c3ccccc3c21 (stereo not shown) [Example 162, 3-[(3,4-difluorophenyl)carbonyl]-N-(2,3-dihydroxypropyl)-1,1-dimethyl-1,2,3,6-tetrahydroazepino[4,5-b]indole-5-carboxamide]
- EC50: > 10000 nM

SMILES: CC1(C)CN(C(=O)c2ccc(F)c(F)c2)C=C(C(=O)NC(CO)CO)c2[nH]c3ccccc3c21 [Example 163, 3-[(3,4-difluorophenyl)carbonyl]-N-[2-hydroxy-1-(hydroxymethyl)ethyl]-1,1-dimethyl-1,2,3,6-tetrahydroazepino[4,5-b]indole-5-carboxamide]
- EC50: 1000 to 10000 nM
- Emax: > 100%

SMILES: CC(C)OC(=O)C1=CN(C(=O)c2cccc(CN3CCN(C(=O)OC(C)(C)C)CC3)c2)CC(C)(C)c2c1[nH]c1ccccc21 [Example 166, 1-methyethyl 3-({3-[(4-{[(1,1-dimethylethyl)oxy]carbonyl}piperazin-1-yl)methyl]phenyl}carbonyl)-1,1-dimethyl-1,2,3,6-tetrahydroazepino[4,5-b]indole-5-carboxylate]
- EC50: 100 to 1000 nM
- Emax: > 100%

SMILES: CC(C)OC(=O)C1=CN(C(=O)c2cccc(CN3CCN(S(=O)(=O)c4ccccc4)CC3)c2)CC(C)(C)c2c1[nH]c1ccccc21 [Example 167, 1-methylethyl 1,1-dimethyl-3-[(3-{[4-(phenylsulfonyl)piperazin-1-yl]methyl}phenyl)carbonyl]-1,2,3,6-tetrahydroazepino[4,5-b]indole-5-carboxylate]
- EC50: 100 to 1000 nM
- Emax: > 100%

SMILES: CC(C)OC(=O)C1=CN(C(=O)c2cccc(CN3CCN(S(=O)(=O)c4ccc(F)cc4)CC3)c2)CC(C)(C)c2c1[nH]c1ccccc21 [Example 168, 1-methylethyl 3-{[3-({4-[(4-fluorophenyl)sulfonyl]piper-azin-1-yl}methyl)phenyl]carbonyl}-1,1-dimethyl-1,2,3,6-tetrahydroazepino[4,5-b]indole-5-carboxylate]
- EC50: 100 to 1000 nM
- Emax: > 100%
